Data set [1] is described as follows: 1H NMR relaxometry (relaxivity as a function of pH). As to conditions: pH 3, 61 MHz, 25 °C, after dissociation of the complexes. The class given is physicochemical. An excerpt:
The studies reported by Branco assumed the formation of a protonated [Mn(HL)]^3+ species for the Mn-PYAN complex characterized by protonation constant log KMnLH = 5.19 (KMnLH = [MnHL]/[MnL] × [H^+]).[42] However, our pH-potentiometric data could be fitted very well without considering the formation of protonated species or hydroxo-complexes. In order to confirm that the equilibrium model used to fit the pH-potentiometric data was correct, we measured the relaxivity (r1p) of aqueous solutions of the complexes as a function of pH (Figure 4). Relaxivity measures the ability of a paramagnetic solute to enhance the longitudinal relaxation rate of solvent water molecules, normalized for a 1 mM concentration of the paramagnetic ion.[45] The r1p values measured around neutral pH values (0.83 and 1.40 mM^–1 s^–1 at 61 MHz and 25 °C for Mn-PYAN and Mn-CHXPYAN, respectively) are typical of complexes that lack one or more water molecules in the inner coordination sphere, the observed relaxivity being the result of the outer-sphere contribution.[46] Relaxivity is fairly constant in the pH range of 6–9 but increases below pH ∼ 6 due to complex dissociation, reaching a relaxivity of 6.00 mM^–1 s^–1 at pH 3, 61 MHz, and 25 °C that is characteristic of the [Mn(H2O)6]^2+ complex.[47] The relaxivity profile matches the speciation diagrams calculated using the equilibrium constants obtained by pH potentiometry very well, which provides support for the equilibrium model used to fit the potentiometric data. It is worth noting that complex dissociation takes place at a lower pH for Mn-CHXPYAN than for Mn-PYAN, as expected, considering their pMn values.
The relaxivity values were calculated from the longitudinal relaxation time of H2O protons (T1) measured at 61 MHz on a Stelar relaxometer connected to a Bruker WP80 NMR electromagnet adapted to variable-field measurements (15–80 MHz proton Larmor frequency). […] The longitudinal relaxation time was measured with the “inversion recovery” method (180°–τ–90°) by using 12 different τ values with a typical 90° pulse width of 10.7 μs, 4 scans. […]

The conditions of data set [2]: cited from earlier work.
Data set [3] is described as follows: pH-potentiometric titrations, stability constants of the Mn(II) complexes. The format is physicochemical. Particulars: 0.15 M NaCl, 25°C; for pMn: pMn = −log[Mn]free when [Mn^2+] = [L] = 10 μM at pH = 7.4; for log KMnL: stability constant of the Mn(II) complex. As to the method:
The stability constants of the Mn(II) complexes with PYAN and CHXPYAN defined by eq 2 were also determined through pH-potentiometric titrations. [drawing 2] 2
(§1) The protonation constants of PYAN and CHXPYAN and the stability constants of Mn(II) complexes were determined by pH-potentiometric titrations. The metal-to-ligand concentration ratio was 1:1 (the concentration of the ligand was generally 0.002 M). For the pH measurements and titrations, a Metrohm 888 Titrando titration workstation and Metrohm-6.0234.110 combined electrode was used. Equilibrium measurements were carried out at a constant ionic strength (0.15 M NaCl) in 6 mL samples at 25 °C. The solutions were stirred, and N2 was bubbled through them. The titrations were made in the pH range of 1.7–12.0. KH-phthalate (pH = 4.005) and borax (pH = 9.177) buffers were used to calibrate the pH meter. For the calculation of [H^+] from the measured pH values, the method proposed by Irving et al. was used as follows.[59] A 0.01 M HCl solution was titrated with a standardized NaOH solution at 0.15 M NaCl ionic strength. The differences (A) between the measured (pHread) and calculated pH (−log[H^+]) values were used to obtain the equilibrium H^+ concentration from the pH values measured in the titration experiments (A = 0.04). For the equilibrium calculations, the stoichiometric water ionic product (pKw) was also needed to calculate the [OH^–] values under basic conditions. The VNaOH – pHread data pairs of the HCl–NaOH titration obtained in the pH range of 10.5–12.0 were used to calculate the pKw value (pKw = 13.77). The protonation and stability constants were calculated with the PSEQUAD program.[60]

The nature of data set [4]: pH-potentiometric titrations, ligand protonation constants. The format is physicochemical. Particulars: 0.15 M NaCl, 25°C. As to the method:
Chelator protonation constants (log Ki^H) defined by eq 1 were determined using pH-potentiometric titrations, which afforded four protonation constants for each chelator attributed to the protonation of the amine N atoms (Table 2, and standard deviations are shown in parentheses). [drawing 1] 1 where i = 1, 2...4. The first two protonation constants adopt nearly identical values for both chelators, while the third and fourth protonation constants are much lower for CHXPYAN than for PYAN, which is consistent with the results obtained by Jackels et al.[25] The high rigidity of CHXPYAN likely forces the protonated amines to be placed at a shorter distance than in PYAN, reducing the values of log K3^H and log K4^H for the cyclohexyl derivative due to electrostatic effects. […] The structurally related 18-membered macrocycle 18-ane-N6 is characterized by a higher basicity compared with PYAN and CHXPYAN, as expected due to the increased number of amine N atoms and its higher flexibility.[43]
as §1

For data set [5] the following is noted: cited from earlier work. The source holds these as a separate data set.
A short description of data set [6]: Transmetalation (dissociation) kinetics of the Mn(II) complexes with Cu2+. The format is physicochemical. Particulars: 0.15 M NaCl, 25 °C; for log*KH: protonation constant of the *[Mn(HL)] intermediate. As to the method: There is a wide consensus among the coordination chemistry community that kinetic inertness is more important for the safe use of metal complexes for imaging applications than thermodynamic stability.[8],[49],[50] Thus, we conducted a detailed investigation of the transmetalation kinetics of the Mn-PYAN and Mn-CHXPYAN complexes, by following their exchange reactions with Cu^2+ in the pH range of 2.5–4.5 (eq 3). [drawing 3] 3
All reactions were carried out in the presence of a large excess of Cu^2+ in order to guarantee the pseudo-first-order kinetic conditions. The transmetalation of Mn-PYAN in the pH range ∼2.0–4.5 is very fast, and thus the rates of the reactions were measured using the stopped-flow technique. Conversely, the exchange reactions of the Mn-CHXPYAN complex are slow and could be studied by using conventional methods. The transmetalation reactions of Mn-PYAN and Mn-CHXPYAN were monitored by following the formation of the corresponding Cu(II) complexes at 295 nm.
The kd values increase upon increase in [H^+] and are independent of the concentration of Cu^2+ as it was found for Mn-PCTA, Mn-PC3AM, and Mn-bispidine complexes.[49],[51] […] The increase in the kd values with increasing H^+ concentration can be interpreted in terms of the extremely slow spontaneous (k0, eq 4) and the proton-assisted (k*[Mn(HL), eq 6) dissociation of Mn(II) complexes. The saturation behavior of the plots of kd versus [H^+] (Figure 5) is characteristic for the equilibrium formation and the accumulation of the *[Mn(HL)] intermediate characterized by the *KH protonation constant (eq 5). The analysis of the rate constants obtained for Mn-CHXPYAN indicates a second-order dependence of kd on [H^+], which can be explained by the proton-assisted dissociation of the *[Mn(HL)] intermediate (k^H*[Mn(HL)], eq 7). [drawing 4] 4 [drawing 5] 5 [drawing 6] 6 [drawing 7] 7
In the presence of excess of the exchanging ion, the transmetalation can be treated as a pseudo-first-order process, and the rate of reactions can be expressed with eq 8, where kd is a pseudo-first-order rate constant and [MnL]t is the total concentration of the complex. [drawing 8] 8
Through consideration of all the possible pathways, the rate of the transmetalation of Mn-PYAN and Mn-CHXPYAN with Cu^2+ can be expressed by eq 9 [drawing 9] 9 Considering the total concentration of the Mn(II) complex ([MnL]t = [MnL] + [*Mn(HL)], as well as the equation defining the protonation constant for the formation of the *[Mn(HL)] intermediate (eq 5) and eq 8, the pseudo-first-order rate constant can be expressed as follows [drawing 10] 10 where k1 = k*[Mn(HL)] × *KH and k2 = k^H*[Mn(HL)] × *KH. The rate and protonation constants characterizing the transmetalation of Mn-PYAN and Mn-CHXPYAN with Cu^2+ have been calculated by fitting the kd values presented in Figure 5 to eq 10 and the values obtained are compared with the corresponding values of Mn-DOTA, Mn-DO3A, Mn-PCTA, Mn-PC3AM^H, and Mn-bispidine in Table 3.
Rates of the metal exchange reactions of Mn-PYAN and Mn-CHXPYAN with Cu^2+ were measured by spectrophotometry by following the formation of the related Cu(II) complexes at 295 nm with an Applied Photophysics DX-17MV stopped-flow instrument and PerkinElmer Lambda 365 UV–vis spectrophotometer using 1.0 cm cells, respectively. The concentration of Mn-PYAN and Mn-CHXPYAN was 1.0 × 10^–4 M, whereas the concentration of Cu^2+ was 10 and 20 times higher in order to guarantee pseudo-first-order conditions. The temperature was maintained at 25 °C and the ionic strength of the solutions was kept constant with 0.15 M NaCl. The exchange rates were studied in the pH range of ca. 2.0–4.5. To keep the pH values constant, monochloroacetic acid (pH range 2.0–3.3), 1,4-dimethylpiperazine (pH range 3.3–4.1), and N-methylpiperazine (pH range 4.1–4.5) buffers were used (0.01 M). […]

We go through 3 compounds from publication PMC11247486, “Improving the In Vivo Stability of [^52Mn]Mn(II) Complexes with 18-Membered Macrocyclic Chelators for PET Imaging” (Journal of Medicinal Chemistry, 2024).

The structures appear in SMILES notation. Like-named read-outs stand apart in the source and are kept apart here.

In data set [1], `O.O.O.O.O.O.[Mn+2]` [[Mn(H2O)6]^2+] registered a relaxivity of 6.00 mM^–1 s^–1.
Take `c1cc2nc(c1)CN[C@@H]1CCCC[C@H]1NCc1cccc(n1)CN[C@@H]1CCCC[C@H]1NC2` [CHXPYAN, (4^1R,4^2R,10^1R,10^2R)-3,5,9,11-tetraaza-1,7(2,6)-dipyridina-4,10(1,2)-dicyclohexanacyclododecaphane]: the “log KMnL” value in data set [2] (0.2 M KNO3) is reported as about 13. In data set [3], the pMn is 7.41 and the “log KMnL” value is reported as 12.51(3). In data set [4], the “log K1^H” value is given as 9.16(2), the “log K2^H” value is 8.27(2), the “log K3^H” value was 4.55(2) and the “log K4^H” value was 2.54(3). In addition, in data set [5] (0.2 M KNO3), the “log K1^H” value was 9.25, the “log K2^H” value was 8.57, the “log K3^H” value is 4.75 and the “log K4^H” value is 4.03. Moreover, in data set [6] (Mn(II) complex of the chelator), the k1 turned out to be 0.23 ± 0.03 M^–1 s^–1, the k2 result was “(6.4 ± 0.8) × 10^3 M^–2 s^–1” and the “kd at pH = 7.4” value is recorded as 9.0 × 10^–9 s^–1. The “log*KH” value in data set [6] was 3.33 (5).
On to `c1cc2nc(c1)CNCCNCc1cccc(n1)CNCCNC2` [PYAN, 3,6,10,13-tetraaza-1,8(2,6)-dipyridinacyclotetradecaphane], for which the “log KMnL” value in data set [2] (0.1 M KNO3) was 11.79. Also, the “log KMnL” value in data set [2] (0.2 M KCl) is recorded as 12.5. Also, in data set [3], the pMn stood at 7.18 and the “log KMnL” value was 11.93(3). Also, in data set [4], the “log K1^H” value was 9.02(1), the “log K2^H” value is 8.27(1), the “log K3^H” value is 6.06(1) and the “log K4^H” value is given as 5.18(2). Besides, in data set [5] (0.1 M KNO3), the “log K1^H” value is on record as 8.99, the “log K2^H” value was 8.22, the “log K3^H” value is 6.03 and the “log K4^H” value was 5.34. Moreover, in data set [5] (0.2 M KCl), the “log K1^H” value was 9.13, the “log K2^H” value is 8.32, the “log K3^H” value was 6.12 and the “log K4^H” value is reported as 5.24. In data set [6] (Mn(II) complex of the chelator), the k1 worked out at 827 ± 54 M^–1 s^–1 and the “kd at pH = 7.4” value is listed as 3.3 × 10^–5 s^–1. Also, the “log*KH” value in data set [6] is 2.23 (4).
